Data on seven molecules can be found in ChEMBL document CHEMBL5113368, “Meroterpenoids produced by fungi: Occurrence, structural diversity, biological activities, and their molecular targets” (Eur J Med Chem, 2021).

≈ marks a conversion by molar mass, not a printed value.

Broadly, the MIC is the lowest concentration found to suppress growth. By IC50 is commonly meant the point on the concentration scale where inhibition reaches its midpoint.

The test system of data set [1] is Vibrio parahaemolyticus. The experiment in a line: Antibacterial activity against Vibrio parahaemolyticus assessed as bacterial growth inhibition incubated for 24 hrs by absorbance based analysis. It counts as functional.
For data set [2], the system named is Vibrio alginolyticus. The experiment in a line: Antibacterial activity against Vibrio alginolyticus assessed as bacterial growth inhibition incubated for 24 hrs by absorbance based analysis. The format is functional.
The subject of data set [3] is Vibrio anguillarum. The experiment in a line: Antibacterial activity against Vibrio anguillarum assessed as bacterial growth inhibition incubated for 24 hrs by absorbance based analysis. It counts as functional.
The subject of data set [4] is Verticillium dahliae. The experiment in a line: Antifungal activity against Verticillium dahliae assessed as fungal growth inhibition by modified broth dilution. It counts as functional. Background: In broth dilution the organism is exposed to a series of concentrations in liquid medium.
The subject of data set [5] is Colletotrichum acutatum. The experiment in a line: Antifungal activity against Colletotrichum acutatum assessed as fungal growth inhibition by modified broth dilution. The format is functional.
In data set [6] the test system is Botrytis cinerea. The experiment in a line: Antifungal activity against Botrytis cinerea assessed as fungal growth inhibition by modified broth dilution. It counts as functional.
For data set [7], the system named is Bipolaris maydis. The experiment in a line: Antifungal activity against Bipolaris maydis assessed as fungal growth inhibition by modified broth dilution. The format is functional.
The subject of data set [8] is Fusarium graminearum. The experiment in a line: Antifungal activity against Fusarium graminearum assessed as fungal growth inhibition by modified broth dilution. The format is functional.
For data set [9], the system named is Phytophthora nicotianae. The experiment in a line: Antifungal activity against Phytophthora parasitica assessed as fungal growth inhibition by modified broth dilution. The format is functional.
In data set [10] the test system is Sclerotinia sclerotiorum. The experiment in a line: Antifungal activity against Sclerotinia sclerotiorum assessed as fungal growth inhibition by modified broth dilution. It counts as functional.
Data set [11] relates to Hepatitis C virus. The experiment in a line: Antiviral activity against Hepatitis C virus infected in human Huh7.5 cells assessed as inhibition of viral replication. The format is functional, organism-based, Hepacivirus hominis.
The test system of data set [12] is Candida albicans. The experiment in a line: Antifungal activity against Candida albicans assessed as fungal growth inhibition incubated for 24 hrs by absorbance based analysis. It counts as functional.
Data set [13] has as its system Bipolaris oryzae. The experiment in a line: Antifungal activity against Cochliobolus miyabeanus assessed as fungal growth inhibition measured after 24 hrs by microscopic analysis. It counts as functional, organism-based.
The target in data set [14] is Beta-secretase 1 (Homo sapiens, UniProt P56817). The experiment in a line: Inhibition of BACE1 (unknown origin) using […] incubated in dark for 1 hr by fluorescence based analysis.
Sequence of Beta-secretase 1 (P56817 whole entry): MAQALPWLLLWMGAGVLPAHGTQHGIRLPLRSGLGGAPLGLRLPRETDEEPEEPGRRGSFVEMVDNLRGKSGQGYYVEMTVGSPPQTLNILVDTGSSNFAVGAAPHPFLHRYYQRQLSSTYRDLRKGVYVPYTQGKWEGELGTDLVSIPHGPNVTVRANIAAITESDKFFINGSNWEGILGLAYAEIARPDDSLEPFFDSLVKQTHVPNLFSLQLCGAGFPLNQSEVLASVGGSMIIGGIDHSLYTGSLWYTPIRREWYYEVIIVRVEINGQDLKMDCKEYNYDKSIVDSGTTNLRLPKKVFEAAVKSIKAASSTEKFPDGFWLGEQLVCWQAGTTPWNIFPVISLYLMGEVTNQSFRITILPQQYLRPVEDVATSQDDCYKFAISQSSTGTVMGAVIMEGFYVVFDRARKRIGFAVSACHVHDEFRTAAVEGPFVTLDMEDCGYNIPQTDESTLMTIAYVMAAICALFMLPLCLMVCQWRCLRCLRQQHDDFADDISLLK
Data set [15] can be described thus: Cytotoxicity against human Caco-2 cells assessed as cell growth inhibition measured after 24 hrs by MTT assay. It counts as toxicity, cell-based.
The subject of data set [16] is THP-1. The experiment in a line: Cytotoxicity against human THP-1 cells assessed as cell growth inhibition measured after 24 hrs by MTT assay. The format is functional, cell-based. The settings on record: THP-1, 24 h. (In general: Tetrazolium assays rely on reduction of a dye to a coloured formazan, in cell work by metabolically active cells.)
The test system of data set [17] is HL-60. The experiment in a line: Cytotoxicity against human HL-60 cells assessed as cell growth inhibition measured after 24 hrs by MTT assay. It counts as functional, cell-based. The conditions noted are these: HL-60, 24 h.

Turning to `CC(C)(O)[C@H](O)CC[C@]1(C)[C@@H](O)CC[C@@]2(C)[C@H]1CC[C@H]1Cc3c([nH]c4ccccc34)[C@@]12C`, the MIC in data set [1] came to 6.3 µM (≈ 2.77 µg/mL); in [2] it was 3.1 µM (≈ 1.36 µg/mL); in data set [3] it was 3.1 µM (≈ 1.36 µg/mL).

For `CC(C)=CCc1ccc2c3c([nH]c2c1)[C@@]1(C)[C@@H](CC[C@@]2(O)[C@@]45O[C@@H]4[C@H](O)[C@@H](C(C)(C)O)O[C@H]5CC[C@@]21C)C3`, the MIC in data set [4], in data set [5], in [6], in [7], in data set [8] and in data set [9] was 25 µg/mL (≈ 47.9 µM) throughout. For the same molecule, the MIC in data set [10] was determined as 25 µg/mL (≈ 47.9 µM).

Consider `CC1=C(O)C(=O)[C@@]23[C@H](C)CC[C@@H]2[C@H](C)CO[C@]32Oc3cc(O)cc(CO)c3C=C12`, for which the IC50 in [11] turned out to be 9.5 µM.

On to `CC(C)(O)[C@@H]1C[C@@H](O)[C@]2(C(=O)O)[C@H](CC[C@@]3(C)[C@H]2CC[C@H]2Cc4c([nH]c5ccccc45)[C@@]23C)O1`, for which the MIC in data set [12] turned out to be 12.5 µg/mL (≈ 26.7 µM).

With `C/C=C(\C)C(=O)[C@H](C)C1=CC(=O)C2=C(O[C@@]3(C)CC[C@H]4OC(C(C)(C)O)CC[C@]4(C)[C@H]3C2)C1=O` (some centres not stated), the IC50 in data set [13] was 0.1 µg/mL (≈ 0.212 µM).

As for `C=C1[C@@]23C(=O)O[C@H](C)[C@@]2(O)C(=O)O[C@]1(C)[C@@H](O)C1=C2CO[C@H]4CC(=O)OC(C)(C)[C@@]24CC[C@@]13C`, the IC50 in [14] was 0.078 µM.

With `C=C1[C@@]2(C)C[C@H]3[C@@]4(C)C(=CC[C@]3(C)[C@]1(C(=O)OC)C(=O)[C@@](C)(O)C2=O)C(C)(C)C(=O)C[C@H]4O` [BERKELEYTRIONE], the IC50 at 24 h in [15] is 10.5 µM. Besides, the figures for the IC50 in data set [16] and in data set [17] were 4.3 µM and 3.4 µM, respectively.
